{"source": "patent US20210092956A1", "about": "“Safening Rice Against Group 15 Herbicides” (THE BOARD OF TRUSTEES OF THE UNIVERSITY OF ARKANSAS, priority 2019, published 2021)", "key": {"Diamond rice": {"tested_on": "Diamond rice", "set-up": "species or system Oryza sativa L.", "conditions": "in vivo", "description": "The experiment was conducted within a growth chamber at 13.8° C. (night) and 23.8° C. (day) using a 10-hour night and 14-hour day photoperiod. Diamond rice was planted in pots filled to the same weight of soil to maintain 80% soil moisture throughout the experiment. […] Data were analyzed using R and subjected to ANOVA. Means were separated using Fisher's LSD (α=0.05)."}, "barnyardgrass": {"tested_on": "barnyardgrass", "experiment": "Field weed control with ME acetochlor, barnyardgrass", "assay_type": "in vivo, Echinochloa crus-galli", "conditions": "fenclorim seed treatment with ME acetochlor", "description": "(§1) The experiment was conducted under standard small-plot research practices. Diamond rice was planted at 72 seeds m^−1 row. […] Data were analyzed using R and subjected ANOVA. Means were separated using Fisher's LSD (α=0.05)."}, "weedy rice or red rice": {"tested_on": "weedy rice or red rice", "experiment": "Field weed control with ME acetochlor, weedy rice", "assay_type": "in vivo, Oryza sativa L. var. sylvatica", "conditions": "fenclorim seed treatment with ME acetochlor", "description": "as §1"}}}
{"compound": "Clc1cc(Cl)nc(-c2ccccc2)n1", "note": "[fenclorim, 4,6-dichloro-2-phenyl-pyrimidine]", "values": [{"measurement": "Biomass", "setting": "Diamond rice", "result": 99, "unit": "%"}, {"measurement": "Height", "setting": "Diamond rice", "result": 13.7, "unit": "cm"}, {"measurement": "Injury", "setting": "Diamond rice", "result": 0, "unit": "%"}, {"measurement": "Stand reduction", "setting": "Diamond rice", "result": 3, "unit": "%"}, {"measurement": "effect of the seed treatment on weed control", "setting": "barnyardgrass", "result": "did not negatively affect weed control"}, {"measurement": "effect of the seed treatment on weed control", "setting": "weedy rice or red rice", "result": "did not negatively affect weed control"}]}
